Experimental data taken from patent US20250179077A1, “QUINAZOLINE COMPOUNDS AND USES THEREOF AS INHIBITORS OF MUTANT KRAS PROTEINS” (AMGEN INC., priority 2022, published 2025).
Where two headings read alike, the source gives them in different places.

How the values were obtained:
[1] = target: GDP-bound KRAS protein (aa 1-169), containing both G12D and C118A amino acid substitutions (Homo sapiens, UniProt P01116, C118A/G12D); experiment: KRAS G12D Coupled Nucleotide Exchange Assay; format: biochemical
Protocol: KRAS G12D Coupled Nucleotide Exchange Assay
Following compound pre-incubation, purified SOS protein (aa 564-1049) and GTP (Roche 10106399001) were added to the assay wells and incubated for an additional 30 min. […] The assay plates were then read on a PerkinElmer EnVision Multilabel Reader, using AlphaScreen® technology, and data were analyzed using a 4-parameter logistic model to calculate IC50 values.

[2] = target: His-tagged KRAS G12D protein (Homo sapiens, UniProt P01116, G12D); experiment: KRAS G12D TR-FRET Assay; format: binding
Protocol: KRAS G12D TR-FRET Assay Compounds of interest were prepared in a dose-response titration in DMSO, and 80 nL were added via Labcyte Echo to each well of a 384-well plate (Perkin Elmer 6008280). The His-tagged KRAS G12D protein (Amgen) was diluted to 20 nM in Assay Buffer (20 mM HEPES, pH 7.4, 10 mM MgCl2, 50 mM NaCl, 0.1% BSA, 0.01% Tween-20, 10 μM GDP) and 2 uL was added to the appropriate wells of the 384-well plate. The plate was incubated for 30 minutes at room temperature. Biotinylated KRPep-2d substrate (Amgen) was diluted to 20 nM in Assay Buffer and 2 μL was added to all wells and incubated for 1 hour at room temperature. Detection Reagent (0.4 nM LANCE Eu-W1024 Anti-6×-His (Perkin Elmer AD0401), 5 nM streptavidin-d2 (Cisbio 610SADLA)) was prepared in Assay Buffer, then 4 μL was added to the plate and incubated for 1 hour at room temperature. Plates were read using PerkinElmer EnVision (ex: 320 nm, em1: 665 nm, em2: 615 nm) and em1/em2 data was used to generate curve fits using a 4-parameter logistic model to calculate IC50 values.

[3] = tested on: Phosphorylation of ERK1/2 in AsPC-1 cells; experiment: Phospho-ERK1/2 MSD Assay; format: cell-based
Protocol: AsPC-1 (ATCC® CRL-1682™) cells were cultured in RPMI 1640 Medium (ThermoFisher Scientific 11875093) containing 10% fetal bovine serum (ThermoFisher Scientific 16000044) and Ix penicillin-streptomycin-glutamine (ThermoFisher Scientific 10378016). Sixteen hours prior to compound treatment, AsPC-1 cells were seeded in 96-well cell culture plates at a density of 25,000 cells/well and incubated at 37° C., 5% CO2. A compound dose-response titration was diluted in growth media, added to appropriate wells of a cell culture plate, and then incubated at 37° C., 5% CO2 for 2 h. Following compound treatment, cells were washed with ice-cold Dulbecco's phosphate-buffered saline, no Ca^2+ or Mg^2+ (ThermoFisher Scientific 14190144), and then lysed in RIPA buffer (50 mM Tris-HCl pH 7.5, 1% Igepal, 0.5% sodium deoxycholate, 150 mM NaCl, and 0.5% sodium dodecyl sulfate) containing protease inhibitors (Roche 4693132001) and phosphatase inhibitors (Roche 4906837001). Phosphorylation of ERK1/2 in compound-treated lysates was assayed using Phospho-ERK1/2 Whole Cell Lysate kits (Meso Scale Discovery K151DWD) according to the manufacturer's protocol. Assay plates were read on a Meso Scale Discovery Sector Imager 6000, and data were analyzed using a 4-parameter logistic model to calculate IC50 values.

[4] = Homo sapiens, ASPC1, 2 h, read-out: 2 h p-ERK (AsPC-1 cells), IC50, AsPC-1 cells, 2 h compound treatment
[5] = read-out: 2 h p-ERK (AsPC-1 cells), IC50, AsPC-1 cells, 2 h compound treatment

GDP-bound KRAS protein (aa 1-169), containing both G12D and C118A amino acid substitutions, sequence (P01116 1-169 isoform P01116-2 G12D/C118A): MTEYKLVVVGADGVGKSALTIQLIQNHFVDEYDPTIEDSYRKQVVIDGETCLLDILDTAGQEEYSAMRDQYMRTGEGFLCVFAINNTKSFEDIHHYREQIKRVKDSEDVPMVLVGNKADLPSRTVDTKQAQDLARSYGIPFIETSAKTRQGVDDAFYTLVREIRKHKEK
His-tagged KRAS G12D protein, sequence (P01116 1-188 isoform P01116-2 G12D): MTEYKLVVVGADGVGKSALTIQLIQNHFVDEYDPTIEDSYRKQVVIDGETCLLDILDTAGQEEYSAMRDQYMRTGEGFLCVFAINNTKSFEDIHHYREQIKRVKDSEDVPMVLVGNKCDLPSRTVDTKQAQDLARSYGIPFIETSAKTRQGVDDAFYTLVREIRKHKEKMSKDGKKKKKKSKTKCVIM

## CCc1cccc2cc(O)cc(-c3c(F)cc4c(N5CCOCC(C)(O)C5)nc(OC[C@@]56CCCN5C[C@H](F)C6)nc4c3F)c12 (single isomer, unassigned) [Example 33]
[1]
  IC50: 3 nM
[2]
  IC50: 5 nM
[3]; [4]
  IC50: 4 nM

## CCc1c(F)ccc2cc(O)cc(-c3ccc4c(N5CC6CC(O)C(C6)C5)nc(OC[C@@]56CCCN5C[C@H](F)C6)nc4c3F)c12 (single isomer, unassigned) [Example 15]
[1]
  IC50: 4 nM
[2]
  IC50: 4 nM
[3]; [4]
  IC50: 297 nM

## C/C=C\c1c(Cl)cc2[nH]ncc2c1-c1ccc2c(N3CCC[C@]4(CCO4)C3)nc(OC[C@@]34CCCN3C[C@H](F)C4)nc2c1F [Example 116, (4S)-6-(7-(6-Chloro-5-((Z)-prop-1-en-1-yl)-1H-indazol-4-yl)-8-fluoro-2-(((2R,7aS)-2-fluorotetrahydro-1H-pyrrolizin-7a(5H)-yl)methoxy)quinazolin-4-yl)-1-oxa-6-azaspiro[3.5]nonane]
[1]
  IC50: 2 nM
[2]
  IC50: 3 nM
[3]; [4]
  IC50: 59 nM

## C/C=C\c1c(Cl)cc2[nH]ncc2c1-c1ccc2c(N3CCC[C@@](C)(O)C3)nc(OCC3(CN(C)C)CC3)nc2c1F [Example 115, (3R)-1-(7-(6-Chloro-5-((Z)-prop-1-en-1-yl)-1H-indazol-4-yl)-2-((1-((dimethylamino)methyl)cyclopropyl)methoxy)-8-fluoroquinazolin-4-yl)-3-methylpiperidin-3-ol]
[1]
  IC50: 9 nM
[2]
  IC50: 8 nM
[3]; [4]
  IC50: 247 nM

## CCc1c(F)ccc2cc(N)cc(-c3c(F)cc4c(N5CCC[C@]6(CNC(=O)O6)C5)nc(OC[C@@]56CCCN5C[C@H](F)C6)nc4c3F)c12 (single isomer, unassigned) [Example 97]
[1]
  IC50: 2 nM
[2]
  IC50: 4 nM
[3]; [4]
  IC50: 29 nM

## Oc1cc(-c2c(F)cc3c(N4CCC[C@]5(CCO5)C4)nc(OC[C@@]45CCCN4C[C@H](F)C5)nc3c2F)c2c(Cl)c(F)ccc2c1 [Example 78, 5-Chloro-4-(6,8-difluoro-2-(((2R,7aS)-2-fluorotetrahydro-1H-pyrrolizin-7a(5H)-yl)methoxy)-4-((S)-1-oxa-6-azaspiro[3.5]nonan-6-yl)quinazolin-7-yl)-6-fluoronaphthalen-2-ol]
[1]
  IC50: 3 nM
[2]
  IC50: 5 nM
[3]; [4]
  IC50: 16 nM

## C/C=C\c1c(C)cc2[nH]ncc2c1-c1c(F)cc2c(N3CCC[C@](O)(CF)C3)nc(OC[C@@]34CCCN3C[C@H](F)C4)nc2c1F (single isomer, unassigned) [Example 102]
[1]
  IC50: 3 nM
[2]
  IC50: 4 nM
[3]; [4]
  IC50: 36 nM

## CCc1c(F)ccc2cc(O)cc(-c3c(F)cc4c(N5CCCC6(CNC(=O)O6)C5)nc(OC[C@@]56CCCN5C[C@H](F)C6)nc4c3F)c12 (single isomer, unassigned) [Example 59]
[1]
  IC50: 8 nM
[2]
  IC50: 21 nM
[3]; [5]
  IC50: 39 nM

## C#Cc1cccc2cc(O)cc(-c3ccc4c(N5CC6CC(O)C(C6)C5)nc(OC[C@@]56CCCN5C[C@H](F)C6)nc4c3F)c12 (single isomer, unassigned) [Example 16]
[1]
  IC50: 2 nM
[2]
  IC50: 2 nM
[3]; [4]
  IC50: 132 nM

## C#Cc1c(F)ccc2cc(O)cc(-c3ccc4c(N5CCC[C@@](C)(O)C5)nc(OC[C@@]56CCCN5C[C@H](F)C6)nc4c3F)c12 [Example 47, (R)-1-(7-(8-Ethynyl-7-fluoro-3-hydroxynaphthalen-1-yl)-8-fluoro-2-(((2R,7aS)-2-fluorotetrahydro-1H-pyrrolizin-7a(5H)-yl)methoxy)quinazolin-4-yl)-3-methylpiperidin-3-ol]
[1]
  IC50: 4 nM
[2]
  IC50: 4 nM
[3]; [4]
  IC50: 21 nM

## CCc1c(F)ccc2cc(O)cc(-c3c(F)cc4c(N5CCCC6(CCO6)C5)nc(OC[C@@]56CCCN5C[C@H](F)C6)nc4c3F)c12 (single isomer, unassigned) [Example 38]
[1]
  IC50: 12 nM
[2]
  IC50: 12 nM
[3]; [5]
  IC50: 425 nM

## N#Cc1cc2c(N3CCCOCC3)nc(OC[C@@]34CCCN3C[C@H](F)C4)nc2c(F)c1-c1cc(O)cc2ccccc12 [Example 44, 8-Fluoro-2-(((2R,7aS)-2-fluorotetrahydro-1H-pyrrolizin-7a(5H)-yl)methoxy)-7-(3-hydroxynaphthalen-1-yl)-4-(1,4-oxazepan-4-yl)quinazoline-6-carbonitrile]
[1]
  IC50: 28 nM
[2]
  IC50: 50 nM
[3]; [4]
  IC50: 1860 nM

## CCc1c(F)ccc2cc(N)cc(-c3c(F)cc4c(N5CCCC(O)(C(F)F)C5)nc(OC[C@@]56CCCN5C[C@H](F)C6)nc4c3F)c12 (stereo partly drawn) [Example 68, 1-(7-(3-Amino-8-ethyl-7-fluoronaphthalen-1-yl)-6,8-difluoro-2-(((2R,7aS)-2-fluorotetrahydro-1H-pyrrolizin-7a(5H)-yl)methoxy)quinazolin-4-yl)-3-(difluoromethyl)piperidin-3-ol]
[1]
  IC50: 23 nM
[2]
  IC50: 436 nM
[3]; [4]
  IC50: 1930 nM

## C[C@@]1(O)CCCN(c2nc(OC[C@@]34CCCN3C[C@H](F)C4)nc3c(F)c(-c4cc(N)cc(Cl)c4C(F)(F)F)ccc23)C1 [Example 60, (R)-1-(7-(5-Amino-3-chloro-2-(trifluoromethyl)phenyl)-8-fluoro-2-(((2R,7aS)-2-fluorotetrahydro-1H-pyrrolizin-7a(5H)-yl)methoxy)quinazolin-4-yl)-3-methylpiperidin-3-ol]
[1]
  IC50: 12 nM
[2]
  IC50: 15 nM
[3]; [4]
  IC50: 1170 nM

## CCc1c(F)ccc2cc(O)cc(-c3ccc4c(N5CCC[C@]6(COC(=O)O6)C5)nc(OC[C@@]56CCCN5C[C@H](F)C6)nc4c3F)c12 (single isomer, unassigned) [Example 86]
[1]
  IC50: 4 nM
[2]
  IC50: 6 nM
[3]; [4]
  IC50: 52 nM

## C[C@@H]1CC1c1c(Cl)cc2[nH]ncc2c1-c1c(F)cc2c(N3CCOCC(O)(CF)C3)nc(OC[C@@]34CCCN3C[C@H](F)C4)nc2c1F (single isomer, unassigned) [Example 99]
[1]
  IC50: 5 nM
[2]
  IC50: 9 nM
[3]; [4]
  IC50: 93 nM

## C#Cc1c(F)ccc2cc(N)cc(-c3c(F)cc4c(N5CCCC6(CNC(=O)O6)C5)nc(OC[C@@]56CCCN5C[C@H](F)C6)nc4c3F)c12 (stereo partly drawn) [Example 69, 7-(7-(3-Amino-8-ethynyl-7-fluoronaphthalen-1-yl)-6,8-difluoro-2-(((2R,7aS)-2-fluorotetrahydro-1H-pyrrolizin-7a(5H)-yl)methoxy)quinazolin-4-yl)-1-oxa-3,7-diazaspiro[4.5]decan-2-one]
[1]
  IC50: 5 nM
[2]
  IC50: 11 nM
[3]; [4]
  IC50: 175 nM

## CCc1c(F)ccc2cc(O)cc(-c3ccc4c(N5CCOCC(C)(O)C5)nc(OC[C@@]56CCCN5C[C@H](F)C6)nc4c3F)c12 (single isomer, unassigned) [Example 29]
[1]
  IC50: 1 nM
[2]
  IC50: 1 nM
[3]; [4]
  IC50: 15 nM

## CCc1c(F)ccc2cc(O)cc(-c3c(F)cc4c(N5CCC(O)C5)nc(OC[C@@]56CCCN5C[C@H](F)C6)nc4c3F)c12 (stereo partly drawn) [Example 19, 1-(7-(8-Ethyl-7-fluoro-3-hydroxynaphthalen-1-yl)-6,8-difluoro-2-(((2R,7a.S)-2-fluorotetrahydro-1H-pyrrolizin-7a(5H)-yl)methoxy)quinazolin-4-yl)pyrrolidin-3-ol]
[1]
  IC50: 37 nM
[2]
  IC50: 111 nM
[3]; [4]
  IC50: 7740 nM
